Reference: US11957684B2, “Treatment of heavy menstrual bleeding associated with uterine fibroids” (Sumitomo Pharma Switzerland GmbH, priority 2016, dated 2024)
Where “and” joins values, the source holds several entries; their conditions need not be identical. Equal entries are not always repeated. Where two headings read alike, the source gives them in different places.

Tested on: endometriosis-associated pain
Assay type: in vivo, human
Experimental: Subjects assessed and recorded their own quality of life (QOL) using the EHP-30 once a month during the study visit. As used in the examples, the VAS score was evaluated using a 100 mm scale. For pain intensity, the scale was anchored by “no pain” (score of 0) and “pain as bad as you can imagine” (score of 100). […] The above items were evaluated using a patient diary that was distributed by the sponsor. Subjects filled out the patient diary every day during the treatment period or until early termination. If taking prohibited analgesics, subjects recorded this fact in the patient diary along with the accompanying pain symptoms before use of analgesics. As used in the examples, pain during menstruation and pelvic pain unrelated to menstruation were evaluated using scores on the M-B&B and B&B. The M-B&B scores were recorded by subjects on the patient diary supplied by the sponsor. Subjects filled out the patient diary every day during the treatment period or until early termination. If taking prohibited analgesics, subjects recorded this fact in the patient diary along with the accompanying pain symptoms before use of analgesics. The investigator or subinvestigator assessed each patient's pain through interviews and filled out a B&B once a month. The items that were assessed are shown below. The M-B&B score included: dysmenorrhea (severe, moderate, mild, no pain, or no menstruation); pelvic pain (severe, moderate, mild, or no pain); deep dyspareunia (severe, moderate, mild, no pain, or no intercourse). The B&B score included: dysmenorrhea (severe, moderate, mild, none, or not applicable); dyspareunia (severe, moderate, mild, none, or not applicable); pelvic pain (severe, moderate, mild, or none); pelvic tenderness (severe, moderate, mild, or none); and induration (severe, moderate, mild, or none). As used in the examples, the EHP-30 score was obtained by subjects assessing and recording their own QOL using the EHP-30 questionnaire.

CONC(=O)Nc1ccc(-c2sc3c(c2CN(C)C)c(=O)n(-c2ccc(OC)nn2)c(=O)n3Cc2c(F)cccc2F)cc1 [Compound 1, N-(4-(1-(2,6-difluorobenzyl)-5-((dimethylamino)methyl)-3-(6-methoxy-3-pyridazinyl)-2,4-dioxo-1,2,3,4-tetrahydrothieno[2,3-d]pyrimidin-6-yl)phenyl)-N′-methoxyurea]
change from baseline in mean VAS, dysmenorrhea (10 mg, Day 1-28): −10.657±17.0824 mm | change from baseline in mean VAS, dyspareunia (10 mg, Day 1-28): 1.642±10.6212 mm | change from baseline in mean VAS, pelvic pain (10 mg, Day 1-28): −4.606±7.1304 mm | mean VAS score, dysmenorrhea (10 mg, Day 1-28): 17.556±17.0427 mm | mean VAS score, dyspareunia (10 mg, Day 1-28): 9.608±15.4027 mm | mean VAS score, pelvic pain (10 mg, Day 1-28): 9.988±10.3249 mm | change from baseline in mean VAS, dysmenorrhea (10 mg, Day 57-84): −14.747±16.8648 mm | change from baseline in mean VAS, dyspareunia (10 mg, Day 57-84): −1.033±12.2047 mm | change from baseline in mean VAS, pelvic pain (10 mg, Day 57-84): −6.282±9.1659 mm | mean VAS score, dysmenorrhea (10 mg, Day 57-84): 13.568±15.5954 mm | mean VAS score, dyspareunia (10 mg, Day 57-84): 10.110±18.5404 mm | mean VAS score, pelvic pain (10 mg, Day 57-84): 8.400±10.1329 mm | change from baseline in mean VAS, dysmenorrhea (10 mg, Day 141-168): −15.191±17.6754 mm | change from baseline in mean VAS, dyspareunia (10 mg, Day 141-168): −4.124±10.5641 mm | change from baseline in mean VAS, pelvic pain (10 mg, Day 141-168): −7.872±11.2457 mm | mean VAS score, dysmenorrhea (10 mg, Day 141-168): 11.758±15.4431 mm | mean VAS score, dyspareunia (10 mg, Day 141-168): 5.550±11.1157 mm | mean VAS score, pelvic pain (10 mg, Day 141-168): 6.861±9.2099 mm | change from baseline in EHP-30, control & powerlessness (10 mg, Week 24): −13.97±17.502 | change from baseline in EHP-30, emotional well-being (10 mg, Week 24): −8.38±15.918 | change from baseline in EHP-30, pain (10 mg, Week 24): −16.98±20.286 | change from baseline in EHP-30, social support (10 mg, Week 24): −7.52±10.840 | change from baseline in mean B&B score, dysmenorrhea (10 mg, Week 24): −1.0±0.87 | change from baseline in mean B&B score, dyspareunia (10 mg, Week 24): −0.3±0.67 | change from baseline in mean B&B score, pelvic pain (10 mg, Week 24): −0.8±0.79 | change from baseline in mean B&B score, pelvic tenderness (10 mg, Week 24): −0.7±0.83 | subjects without pain in B&B score, dysmenorrhea (10 mg, Week 24): 27.8% | subjects without pain in B&B score, dyspareunia (10 mg, Week 24): 63.9% | subjects without pain in B&B score, pelvic pain (10 mg, Week 24): 30.4% | subjects without pain in B&B score, pelvic tenderness (10 mg, Week 24): 35.4% | change from baseline in maximum M-B&B score, dysmenorrhea (10 mg, end of treatment): −0.7±1.01 | change from baseline in maximum M-B&B score, dyspareunia (10 mg, end of treatment): −0.2±0.69 | change from baseline in maximum M-B&B score, pelvic pain (10 mg, end of treatment): −0.7±0.94 | change from baseline in maximum VAS, dysmenorrhea (10 mg, end of treatment): −26.4±27.37 mm | change from baseline in maximum VAS, dyspareunia (10 mg, end of treatment): −4.2±16.30 mm | change from baseline in maximum VAS, pelvic pain (10 mg, end of treatment): −24.0±27.54 mm | change from baseline in mean M-B&B score, deep dyspareunia (10 mg, end of treatment): −0.171±0.4683 | change from baseline in mean M-B&B score, dysmenorrhea (10 mg, end of treatment): −0.509±0.6675 | change from baseline in mean M-B&B score, pelvic pain (10 mg, end of treatment): −0.260±0.3624 | change from baseline in mean VAS, dysmenorrhea (10 mg, end of treatment): −15.356±18.0506 mm | change from baseline in mean VAS, dyspareunia (10 mg, end of treatment): −3.454±10.8509 mm | change from baseline in mean VAS, pelvic pain (10 mg, end of treatment): −6.849 mm and −6.849±10.5616 mm | change from baseline in mean score of amount of bleeding (0 to 5) (10 mg, end of treatment): −0.529±1.2185 | change from baseline in proportion of days with usage of pain killer (10 mg, end of treatment): −6.32±9.817% | change in proportion of days without pain (M-B&B), deep dyspareunia (10 mg, end of treatment): 8.32±35.972% | change in proportion of days without pain (M-B&B), dysmenorrhea (10 mg, end of treatment): 29.55±42.700% | change in proportion of days without pain (M-B&B), pelvic pain (10 mg, end of treatment): 17.18±26.101% | change in proportion of days without pain (VAS), dysmenorrhea (10 mg, end of treatment): 29.28±43.277% | change in proportion of days without pain (VAS), dyspareunia (10 mg, end of treatment): 9.72±38.401% | change in proportion of days without pain (VAS), pelvic pain (10 mg, end of treatment): 17.90±24.924% | mean VAS score, dyspareunia (10 mg, end of treatment): 6.218±10.6280 mm | mean VAS score, pelvic pain (10 mg, end of treatment): 7.746±9.0900 mm | subjects who achieved amenorrhea (10 mg, end of treatment): 22.3% | subjects without pain in M-B&B score, dysmenorrhea (10 mg, end of treatment): 27.2% | subjects without pain in M-B&B score, dyspareunia (10 mg, end of treatment): 56.0% | subjects without pain in M-B&B score, pelvic pain (10 mg, end of treatment): 24.3% | subjects without pain in VAS score, dysmenorrhea (10 mg, end of treatment): 27.2% | subjects without pain in VAS score, dyspareunia (10 mg, end of treatment): 48.0% | subjects without pain in VAS score, pelvic pain (10 mg, end of treatment): 6.8% and 7% | change from baseline in mean VAS, dysmenorrhea (20 mg, Day 1-28): −9.158±16.6375 mm | change from baseline in mean VAS, pelvic pain (20 mg, Day 1-28): −3.962±6.6751 mm | mean VAS score, dysmenorrhea (20 mg, Day 1-28): 18.545±19.2141 mm | mean VAS score, dyspareunia (20 mg, Day 1-28): 10.809±15.5738 mm | mean VAS score, pelvic pain (20 mg, Day 1-28): 11.627±14.7324 mm | change from baseline in mean VAS, dysmenorrhea (20 mg, Day 57-84): −20.689±21.4387 mm | change from baseline in mean VAS, dyspareunia (20 mg, Day 57-84): −0.191±10.6032 mm | change from baseline in mean VAS, pelvic pain (20 mg, Day 57-84): −8.547±13.8568 mm | mean VAS score, dysmenorrhea (20 mg, Day 57-84): 6.626±13.5146 mm | mean VAS score, dyspareunia (20 mg, Day 57-84): 9.229±16.6530 mm | mean VAS score, pelvic pain (20 mg, Day 57-84): 6.675±10.8072 mm | change from baseline in mean VAS, dysmenorrhea (20 mg, Day 141-168): −19.860±19.1617 mm | change from baseline in mean VAS, dyspareunia (20 mg, Day 141-168): −4.012±12.5050 mm | change from baseline in mean VAS, pelvic pain (20 mg, Day 141-168): −8.678±10.6479 mm | mean VAS score, dysmenorrhea (20 mg, Day 141-168): 6.132±13.2012 mm | mean VAS score, dyspareunia (20 mg, Day 141-168): 3.806±8.9781 mm | mean VAS score, pelvic pain (20 mg, Day 141-168): 5.486±9.1562 mm | change from baseline in EHP-30, Self-image (20 mg, Week 24): −10.59±15.256 | change from baseline in EHP-30, control & powerlessness (20 mg, Week 24): −20.04±21.880 | change from baseline in EHP-30, emotional well-being (20 mg, Week 24): −15.37±17.858 | change from baseline in EHP-30, pain (20 mg, Week 24): −20.58±19.650 | change from baseline in EHP-30, social support (20 mg, Week 24): −13.44±17.055 | change from baseline in mean B&B score, dysmenorrhea (20 mg, Week 24): −1.5±0.94 | change from baseline in mean B&B score, dyspareunia (20 mg, Week 24): −0.4±0.70 | change from baseline in mean B&B score, pelvic pain (20 mg, Week 24): −0.9±0.85 | change from baseline in mean B&B score, pelvic tenderness (20 mg, Week 24): −0.8±0.79 | subjects without pain in B&B score, dysmenorrhea (20 mg, Week 24): 64.9% | subjects without pain in B&B score, dyspareunia (20 mg, Week 24): 53.6% | subjects without pain in B&B score, pelvic pain (20 mg, Week 24): 39.2% | subjects without pain in B&B score, pelvic tenderness (20 mg, Week 24): 37.8% | change from baseline in maximum M-B&B score, dysmenorrhea (20 mg, end of treatment): −1.4±1.12 | change from baseline in maximum M-B&B score, dyspareunia (20 mg, end of treatment): −0.3±0.59 | change from baseline in maximum M-B&B score, pelvic pain (20 mg, end of treatment): −0.7±0.79 | change from baseline in maximum VAS, dyspareunia (20 mg, end of treatment): −7.0±15.29 mm | change from baseline in maximum VAS, pelvic pain (20 mg, end of treatment): −33.3±30.14 mm | change from baseline in mean M-B&B score, deep dyspareunia (20 mg, end of treatment): −0.210±0.4936 | change from baseline in mean M-B&B score, dysmenorrhea (20 mg, end of treatment): −0.795±0.6490 | change from baseline in mean VAS, dysmenorrhea (20 mg, end of treatment): −19.825±20.4332 mm | change from baseline in mean VAS, dyspareunia (20 mg, end of treatment): −3.553±11.5544 mm | change from baseline in mean VAS, pelvic pain (20 mg, end of treatment): −9.032 mm and −9.032±11.8432 mm | change from baseline in proportion of days with usage of pain killer (20 mg, end of treatment): −7.36±14.585% | change in proportion of days without pain (M-B&B), deep dyspareunia (20 mg, end of treatment): 18.04±47.892%
